{"source": "patent US12370180B2", "about": "“P38 map kinase inhibitors for treating Friedreich's ataxia” (THE TRUSTEES OF THE UNIVERSITY OF PENNYSLVANIA, priority 2015, dated 2025)", "molecules": {"B1": {"name": "gFA2: hit shRNA (also used as siRNA) from random shRNA library, SEQ ID No: 1 (nucleic acid)", "chain": "GCCAATCGGGGAGGTCGGCGCATATCATGCTAAACCATGATATGCGCCGACCTCCCCGATTGGC"}, "B2": {"name": "gFA2.8: gFA2-variant clone with 5 mutations compared to gFA2, SEQ ID No: 9 (nucleic acid)", "chain": "B1 chain with A4C, A5C, G11C, C21A, C36T", "modifications": "expressed or natural sequence"}, "B3": {"name": "gFA2.10: gFA2-variant clone, SEQ ID No: 10 (nucleic acid)", "chain": "B1 chain with A4C, A5C, G11C, C21A, C36T, C54T", "modifications": "expressed or natural sequence"}}, "type_in_all_cases": "cell-based, human", "key": {"primary FA fibroblasts": {"test_system": "primary FA fibroblasts", "assay": "Growth of primary FA fibroblasts in beta-hydroxybutyrate (BHB) based mitochondrial stress medium", "conditions": "for reversal of the slow-growth phenotype (growth defect) of primary FA fibroblasts: beta-hydroxybutyrate-based media", "protocol": "The data shown are the means of triplicate samples+/−one SD. ***p<0.005. (C) Survival of normal control fibroblasts (GM8402) and FA fibroblasts (GM4078) in DMEM plus BHB after 12 days in culture. ***p<0.005. […] Cells were seeded at 80,000 cells per 100 mm dish and were kept sub-confluent. The data shown are the means of triplicate samples+/−one SD. ***p<0.005.\nFA 3665B cells were infected with gFA2 (squares), gFA11 (diamonds) or a random clone (C3) (triangles). Cells were then sorted and GFP-positive cells were grown in DMEM plus BHB 5 mM (FIG. 4A) or in DMEM plus 5 mM glucose (FIG. 4B) ***=p […].\nFA is caused by intronic trinucleotide repeat expansions that decrease expression of frataxin, a protein involved in mitochondrial iron-sulfur-cluster biogenesis. Clones were selected that reverse the slow-growth phenotype of primary FA fibroblasts in media with beta-hydroxybutyrate, a carbon source that particularly stresses cells with mitochondrial dysfunction (FIGS. 1 and 3). Among several clones identified, two clones have been tested and confirmed (FIG. 4): “Clone 2” (also referred to as gFA2) and “Clone 11” (also referred to as gFA11). The DNA coding strand for the shRNA sequences of those two […] (gFA2 and gFA11) are provided below, with the loop-encoding sequences in brackets. The shRNAs themselves are RNA versions of these sequences, with T changed to U.\nThese experiments have been repeated several times, over 4 days, 7 days, and 10 days, with the same results. Therefore, random shRNA screening can be combined with bioinformatic pattern matching to identify conventional chemical-compound therapeutic candidates, and potential therapeutic target proteins."}, "frataxin": {"test_system": "frataxin", "assay": "Frataxin expression in primary FA fibroblasts", "conditions": "vector-expressed shRNA or 10 nM transfected siRNA, BHB medium", "protocol": "Frataxin expression in GM3816 cells infected with gFA2 vs. a random clone (C3) (FIG. 5A) and in GM3665B cells transfected with 10 nM gFA2 siRNA or a random clone (C3) (FIG. 5B). Cells were transfected every 3-4 days for two weeks and kept in BHB medium after the first transfection. ***=p value<0.005\nFIG. 6: Hit-optimization of clone gFA2. A sub-library of ˜3000 sequences was constructed, each with a limited number of random mutations compared to gFA2. This sub-library was screened as described previously and two gFA2-variant clones, gFA2.8 and gFA2.10, were identified. […] (Cells were transfected every two days for one week and kept in DMEM plus 5 mM BHB after the first transfection. ***=p value<0.005). gFA2.8 has 5 mutations compared to gFA2; as a result, there are 5 mismatched bases in the hairpin structure."}, "cytokine secretion": {"test_system": "cytokine secretion", "assay": "Cytokine secretion into media of FA cells, measured by ELISA", "conditions": "media of FA cells expressing clone vs gFA11-Mut1", "excerpt": "FIGS. 9A and 9B show the effect of gFA11 and gFA11-Mut1 shRNA sequences on the secretion of cytokines as measured by ELISA. […] These secretion patterns matched the expression changes seen on microarray analysis of mRNAs of the same cytokines.\n(§1) Of relevance, it has been shown that silencing of the FA disease gene induces a senescence phenotype. […] Finally, gene-expression analyses of cells expressing Clone 11 also indicated an up-regulation of genes involved in DNA repair."}, "GM3816 cells": {"test_system": "GM3816 cells", "assay": "Sensitivity of FA cells to ionizing (gamma) radiation", "conditions": "0.6 Gy irradiation", "excerpt": "as §1"}}, "note": "Numbering of substitutions follows the chain as printed. “Also recorded” adds a separate entry of the source."}
{"molecule": "Cc1ccc(-n2nc(C(C)(C)C)cc2NC(=O)Nc2ccc(OCCN3CCOCC3)c3ccccc23)cc1", "note": "[BIRB-796, doramapimod]", "values": [{"measurement": "reversal of the slow-growth phenotype (growth defect) of primary FA fibroblasts", "setting": "primary FA fibroblasts", "result": "recapitulate the phenotype induced by Clone 11; also recorded: reverses the growth defect"}]}
{"molecule": "Cc1c(F)cc(C(=O)NC2CC2)cc1-c1ccc(C(=O)NCC(C)(C)C)cn1", "note": "[GW-856553, losmapimod]", "values": [{"measurement": "reversal of the slow-growth phenotype (growth defect) of primary FA fibroblasts", "setting": "primary FA fibroblasts", "result": "reversal of the growth defect"}]}
{"molecule": "gFA11-Mut1: version of Clone 11 with a point mutation in the seed sequence, SEQ ID No: 5 and 6 (chain 1 AACACAAUGGAAGAGUGCUGGGUDGDG; chain 2 UGUUGUGUUACCUUCUCACGACCCACC; listed as RNA, chemistry not fully specified; one strand is listed 3' to 5')", "values": [{"measurement": "reversal of the slow-growth phenotype (growth defect) of primary FA fibroblasts", "setting": "primary FA fibroblasts", "result": "diminished; also recorded: the growth-enhancement phenotype of gFA11 is affected"}]}
{"molecule": "ralimetinib dimesylate [LY-2228820]", "values": [{"measurement": "increased growth", "setting": "primary FA fibroblasts; at 50 nM, p<0.005", "result": 1.6, "unit": "fold"}, {"measurement": "reversal of the slow-growth phenotype (growth defect) of primary FA fibroblasts", "setting": "primary FA fibroblasts", "result": "recapitulate the phenotype induced by Clone 11; also recorded: reversal of the growth defect"}]}
{"molecule": "gFA11: hit shRNA from random library, SEQ ID No: 2; siRNA version SEQ ID No: 3 and 4 (chain 1 AACAGAAUGGAAGAGUGCUGGGUDGDG; chain 2 UGUUGUCUUACCUUCUCACGACCCACC; listed as RNA, chemistry not fully specified; one strand is listed 3' to 5')", "values": [{"measurement": "reversal of the slow-growth phenotype (growth defect) of primary FA fibroblasts", "setting": "primary FA fibroblasts", "result": "increase the growth of FA fibroblasts; also recorded: growth-enhancing effect; also recorded: recapitulate the phenotype induced by the corresponding shRNA sequence"}, {"measurement": "reversal of the slow-growth phenotype (growth defect) of primary FA fibroblasts", "setting": "primary FA fibroblasts; listed as Clone 11", "result": "more effective than Clone 2"}, {"measurement": "frataxin expression", "setting": "frataxin", "result": "does not increase frataxin expression"}, {"measurement": "GM-CSF secretion", "setting": "cytokine secretion; p<0.001", "result": "decreases"}, {"measurement": "VEGF secretion", "setting": "cytokine secretion; p<0.001", "result": "decreases"}, {"measurement": "IL8 (IL-8) secretion", "setting": "cytokine secretion; p=0.001", "result": "decreases"}, {"measurement": "GRO secretion", "setting": "cytokine secretion; p=0.003", "result": "decreases"}, {"measurement": "MCP-1 secretion", "setting": "cytokine secretion; p=0.005", "result": "decreases"}, {"measurement": "IL1-beta (IL-1-beta) secretion", "setting": "cytokine secretion; p=0.01", "result": "decreases"}, {"measurement": "IP-10 secretion", "setting": "cytokine secretion; p=0.01", "result": "decreases"}, {"measurement": "RANTES secretion", "setting": "cytokine secretion; p=0.04", "result": "decreases"}, {"measurement": "IL6 (IL-6) secretion", "setting": "cytokine secretion; p=0.09", "result": "decreases"}, {"measurement": "cell susceptibility to gamma irradiation", "setting": "GM3816 cells", "result": "are able to recover"}, {"measurement": "cell susceptibility to gamma irradiation", "setting": "GM3816 cells; listed as Clone 11", "result": "protective"}]}
{"molecule": "O=c1ncn2nc(Sc3ccc(F)cc3F)ccc2c1-c1c(Cl)cccc1Cl", "note": "[VX-745]", "values": [{"measurement": "reversal of the slow-growth phenotype (growth defect) of primary FA fibroblasts", "setting": "primary FA fibroblasts", "result": "reversal of the growth defect"}]}
{"molecule": "NC(=O)c1ccc(N(C(N)=O)c2c(F)cccc2F)nc1-c1ccc(F)cc1F", "note": "[VX-702]", "values": [{"measurement": "increased growth", "setting": "primary FA fibroblasts; at 500 nM, p=0.02", "result": 1.2, "unit": "fold"}, {"measurement": "reversal of the slow-growth phenotype (growth defect) of primary FA fibroblasts", "setting": "primary FA fibroblasts", "result": "recapitulate the phenotype induced by Clone 11; also recorded: reversal of the growth defect"}]}
{"molecule": "C[S+]([O-])c1ccc(-c2nc(-c3ccncc3)c(-c3ccc(F)cc3)[nH]2)cc1", "note": "(centres unmarked) [SB-203580]", "values": [{"measurement": "reversal of the slow-growth phenotype (growth defect) of primary FA fibroblasts", "setting": "primary FA fibroblasts", "result": "recapitulates the phenotype induced by Clone 11; also recorded: reverses the growth defect"}, {"measurement": "reversal of the slow-growth phenotype (growth defect) of primary FA fibroblasts", "setting": "primary FA fibroblasts; listed as SB203580", "result": "increase the growth of FA cells in a dose-dependent manner"}]}
{"molecule": "CNC(=O)c1ccc(C)c(-n2c(C)cc(OCc3ccc(F)cc3F)c(Br)c2=O)c1", "note": "[PH-797804]", "values": [{"measurement": "reversal of the slow-growth phenotype (growth defect) of primary FA fibroblasts", "setting": "primary FA fibroblasts", "result": "reversal of the growth defect"}]}
{"molecule": "Cc1ccc(-n2nc(C(C)(C)C)cc2NC(=O)NCc2cc(F)ccc2Oc2ccc3c(cnn3CCO)c2)cc1", "note": "[ARRY-614, pexmetinib]", "values": [{"measurement": "reversal of the slow-growth phenotype (growth defect) of primary FA fibroblasts", "setting": "primary FA fibroblasts", "result": "reversal of the growth defect"}]}
{"molecule": "Oc1ccc(-c2nc(-c3ccncc3)c(-c3ccc(F)cc3)[nH]2)cc1", "note": "[SB-202190]", "values": [{"measurement": "reversal of the slow-growth phenotype (growth defect) of primary FA fibroblasts", "setting": "primary FA fibroblasts", "result": "recapitulate the phenotype induced by Clone 11; also recorded: reversal of the growth defect"}]}
{"molecule": "B1", "values": [{"measurement": "reversal of the slow-growth phenotype (growth defect) of primary FA fibroblasts", "setting": "primary FA fibroblasts", "result": "increase the growth of FA fibroblasts"}, {"measurement": "frataxin expression", "setting": "frataxin", "result": "increases frataxin expression"}, {"measurement": "frataxin expression", "setting": "frataxin; listed as Clone 2", "result": "partially reverses the decreased expression of frataxin"}]}
{"molecule": "B2", "values": [{"measurement": "frataxin expression", "setting": "frataxin", "result": "more efficacious"}]}
{"molecule": "B3", "values": [{"measurement": "frataxin expression", "setting": "frataxin", "result": "more efficacious"}]}
